According to article PMC7806714, “Statins for the prevention of proliferative vitreoretinopathy: cellular responses in cultured cells and clinical statin concentrations in the vitreous” (Scientific Reports, 2021):

Key:
[1] = UPLC-MS/MS statin and metabolite concentrations in vitreous of vitrectomy patients on oral statins; type: in vivo, human
Method: The study was conducted according to the tenets of the Declaration of Helsinki, and was approved by the Institutional Review Board and Ethical committee of Helsinki University Central Hospital. Twenty patients were enrolled; fifteen with per oral statin treatment and five controls. Signed informed consent was obtained from each participant prior to the vitreous sampling. Confidentiality of the patient records was maintained when the clinical data were entered into a computer-based standardized data entry for analysis. Sixteen patients were being operated due to PDR; of these, five patients had also Tractional Retinal Detachment (TRD); two patients were operated due to RRD, one due to age-related epiretinal fibrosis (pucker), and one due to a macular hole (Supplementary Table S2). […] All vitrectomies were performed by the recruiting vitreoretinal surgeon (SL). […] The samples were collected by manual aspiration into a syringe via the vitrectomy with the cutting function activated. Sample aliquots were transferred into sterile 1.5 mL microcentrifuge tubes (Freemont, CA, USA) and immediately frozen and stored at − 70 °C until laboratory analysis. […] All reference compounds and internal standards were purchased from Toronto Research Chemicals (Toronto, Canada). Samples (100 µl) were divided into two aliquots and kept at − 80 °C prior to analysis. […] Homogenizer blocks were pre-cooled by placing them at − 20 °C. […] Supernatants (120 µl) were pipetted into analytical vials and the concentrations of the statins were measured with Ultra-high Pressure Liquid Chromatography—tandem Mass Spectrometry (UPLC-MS/MS) technique. The same pre-treatment protocol was used to prepare calibration curves and quality control samples but homogenized and filtered porcine vitreous were used as a matrix instead of human vitreous. A minimum of six calibration curve concentrations was used for quantitation of the compounds. Two parallel calibration curve sets included all eleven analytes and four deuterated internal standards. Three quality control samples in three parallel sets were used to validate the method. The linear range varied from approximately 0.004 to 10 ng/mL depending on the analyte. Limit of quantitation was set to the smallest calibration curve point of each drug. Each sample was analysed twice and the average of these values was designated as the concentration of the sample. […] For rosuvastatin, two metabolites were analysed: rosuvastatin lactone and N-desmethyl rosuvastatin lactone. Rosuvastatin D6 was used as an internal standard. The parent drug, its metabolites and internal standard were analysed from the same sample in each case. Liquid chromatography separation was carried out using a Waters Acquity UPLC instrument (Waters, MA, USA) coupled with Waters HSS T3 C18 (2.1 × 100 mm, 1.8 µm) column at 40 °C. The mobile phase consisted of 0.1% formic acid in ultrapure water (A) and 100% of LC–MS grade acetonitrile (B). […] The flow rate was set to 0.3 mL/min and injection volume 1.5 µl. After every three samples, a solvent blank was run to control for any carry over. Mass spectrometry measurements were carried out using a Waters Xevo Triple Quadruple mass spectrometer (TQ-S) equipped with an ESI source. […] The source parameters were as follows: Capillary voltage 2.8 kV, source temperature 150 °C and desolvation temperature 500 °C. Nitrogen (Aga, Helsinki, Finland) was used as a desolvation gas (800 l/h), a cone gas (150 l/h) and a nebulizer gas (7 bar). Argon (Aga, Helsinki, Finland) was used as a collision gas (0.15 mL/min). The Multiple Reaction Monitoring (MRM) mode was used for quantification. Precursor and fragment ions, as well as other optimized parameters are listed in Supplementary Table S3.

IL-6 = assay: ELISA of LPS-induced IL-6 release from ARPE-19 cells; conditions: then LPS
MCP-1 = assay: ELISA of LPS-induced MCP-1 release from ARPE-19 cells; conditions: 24 h prior to LPS
[2] = Calculated average steady-state plasma (Eq. 1) and expected vitreal concentrations (Eq. 3); parameters: species or system human; conditions: for Calc. Cv: expected vitreal, Eq. 3; for Css,av: plasma, Eq. 1
Method: The concentrations of statins and their metabolites in the vitreous were analysed (see above) and expressed as ng/mL concentrations. These concentrations were compared to published statin concentrations in plasma. […] Maximum concentrations in plasma and the area under the concentration vs time curve values were collected. The expected average statin concentrations in plasma during multiple dose treatment were calculated for the doses that the patients received in our study (Eq. 1):1 Css,av=AUCsingledose/τ where τ is the time interval between doses. The drug concentrations in plasma (C, Cmax, Css, av) include both unbound (Cu) and protein-bound drug. The values for protein binding were obtained from the summary of drug product characteristics for each statin. The free fraction of statin in plasma was calculated based on Eq. (2):2 fu=CuC
The expected drug concentrations in the patients’ vitreous samples were calculated according to Eq. (3)3 Cv=fu×Css,av
Equation (3) assumes that the vitreal drug concentrations equilibrate with the unbound drug concentrations in plasma, because only free drug is expected to cross the blood-ocular barriers.

IL-8 = assay: ELISA of LPS-induced IL-8 release from ARPE-19 cells; conditions: 24 h prior to LPS
ARPE-19 cells = assay: LDH release assay (cell membrane integrity); type: cell-based, human; conditions: with and without LPS; Supplementary Fig. S3
Method: Cell viability was assessed by determining the amount of LDH enzyme from culture media using a commercial kit (Promega Corporation, USA) according to the manufacturer’s protocol. This assay provides information about the integrity of the plasma membranes of the cells (high LDH levels meaning cell damage). In addition, the cell viability was examined with MTT assay, as described previously. In viable cells, the mitochondrial succinate dehydrogenase enzyme can metabolize the MTT dye into formazan that absorbs light at the 550 nm wavelength.

[3] = patient 352, PDR, TDR, oral atorvastatin 20 mg
[4] = patient 355, PDR, oral atorvastatin 10 mg
[5] = patient 368, PDR, oral atorvastatin 40 mg
[6] = patient 429, RRD, oral atorvastatin 20 mg
[7] = patient 430, PDR, oral atorvastatin 20 mg
[8] = patient 397, PDR, oral rosuvastatin 20 mg
[9] = patient 412, PDR, oral rosuvastatin 20 mg

## CC(C)c1c(C(=O)Nc2ccccc2O)c(-c2ccccc2)c(-c2ccc(F)cc2)n1CCC1CC(O)CC(=O)O1 (centres unmarked) [2-OH Atv lactone, 2-OH atorvastatin lactone]
[1]; [3]
  Concentration in vitreous sample: 0.023 ng/mL
[1]; [4]
  Concentration in vitreous sample: 0.029 ng/mL
[1]; [5]
  Concentration in vitreous sample: 0.063 ng/mL
[1]; [6]
  Concentration in vitreous sample: 0.023 ng/mL
[1]; [7]
  Concentration in vitreous sample: 0.032 ng/mL

## CC(C)c1c(C(=O)Nc2ccccc2O)c(-c2ccccc2)c(-c2ccc(F)cc2)n1CCC(O)CC(O)CC(=O)O (centres unmarked) [2-OH Atv, 2-OH atorvastatin]
[1]; [3]
  Concentration in vitreous sample: 0.047 ng/mL
[1]; [4]
  Concentration in vitreous sample: 0.071 ng/mL
[1]; [5]
  Concentration in vitreous sample: 0.176 ng/mL
[1]; [7]
  Concentration in vitreous sample: 0.099 ng/mL

## CC(C)c1c(C(=O)Nc2ccc(O)cc2)c(-c2ccccc2)c(-c2ccc(F)cc2)n1CCC1CC(O)CC(=O)O1 (centres unmarked) [4-OH Atv lactone, 4-OH atorvastatin lactone]
[1]; [4]
  Concentration in vitreous sample: 0.012 ng/mL
[1]; [5]
  Concentration in vitreous sample: 0.039 ng/mL
[1]; [6]
  Concentration in vitreous sample: 0.008 ng/mL
[1]; [7]
  Concentration in vitreous sample: 0.017 ng/mL

## CC(C)c1c(C(=O)Nc2ccc(O)cc2)c(-c2ccccc2)c(-c2ccc(F)cc2)n1CC[C@@H](O)C[C@@H](O)CC(=O)O [4-OH Atv, 4-OH atorvastatin]
[1]; [3]
  Concentration in vitreous sample: 0.022 ng/mL
[1]; [4]
  Concentration in vitreous sample: 0.057 ng/mL
[1]; [5]
  Concentration in vitreous sample: 0.209 ng/mL
[1]; [6]
  Concentration in vitreous sample: 0.022 ng/mL
[1]; [7]
  Concentration in vitreous sample: 0.12 ng/mL

## CC(C)c1c(C(=O)Nc2ccccc2)c(-c2ccccc2)c(-c2ccc(F)cc2)n1CC[C@@H](O)C[C@@H](O)CC(=O)O [Atorvastatin]
IL-6; 5 µM pre-treatment for 24 h
  times lower secretion of IL-6 compared to the solvent control: 1.5 times
IL-6; 10 µM pre-treatment for 24 h
  times lower secretion of IL-6 compared to the solvent control: 1.6 times
MCP-1; 5 µM
  LPS-induced release of MCP-1: reduced
MCP-1; 10 µM
  LPS-induced release of MCP-1: reduced
[2]; 10 mg/d, India study [22]
  Calc. Cv: 0.046 ng/mL
[2]; 10 mg/d, Jordan study [21]
  Calc. Cv: 0.024 ng/mL
  Css,av: 0.49 ng/mL
[2]; 10 mg/d, Turkey study [23]
  Calc. Cv: 0.098 ng/mL
[2]; 20 mg/d, China study [25]
  Calc. Cv: 0.037 ng/mL
  Css,av: 1.85 ng/mL
[2]; 20 mg/d, UK study [26]
  Calc. Cv: 0.153 ng/mL
  Css,av: 7.63 ng/mL
[2]; 20 mg/d, USA study [24]
  Calc. Cv: 0.049 ng/mL
[2]; 40 mg/d, Finland study [28]
  Calc. Cv: 0.045 ng/mL
  Css,av: 2.26 ng/mL
[2]; 40 mg/d, Finland study [29]
  Calc. Cv: 0.051 ng/mL
  Css,av: 2.56 ng/mL
[2]; 40 mg/d, USA study [27]
  Calc. Cv: 0.082 ng/mL
  Css,av: 4.11 ng/mL
IL-8; 5 µM
  LPS-induced release of IL-8: reduced
IL-8; 10 µM
  LPS-induced release of IL-8: reduced
ARPE-19 cells
  Tolerance by ARPE-19 cells (LDH and MTT): well tolerated

## CC(C)c1c(C(=O)Nc2ccccc2)c(-c2ccccc2)c(-c2ccc(F)cc2)n1CC[C@@H]1C[C@@H](O)CC(=O)O1 [Atv lactone, atorvastatin lactone]
[1]; [3]
  Concentration in vitreous sample: 0.012 ng/mL
[1]; [4]
  Concentration in vitreous sample: 0.035 ng/mL
[1]; [5]
  Concentration in vitreous sample: 0.089 ng/mL
[1]; [6]
  Concentration in vitreous sample: 0.016 ng/mL
[1]; [7]
  Concentration in vitreous sample: 0.062 ng/mL

## CC(C)c1nc(NS(C)(=O)=O)nc(-c2ccc(F)cc2)c1/C=C/[C@@H](O)C[C@@H](O)CC(=O)O [N-desmethyl Rsv, n-desmethyl rosuvastatin]
[1]; patient 371, PDR, dose 0* (control without reported statin treatment)
  Concentration in vitreous sample: 0.019 ng/mL
[1]; [8]
  Concentration in vitreous sample: 0.013 ng/mL
[1]; [9]
  Concentration in vitreous sample: 0.026 ng/mL

## CC(C)c1nc(N(C)S(C)(=O)=O)nc(-c2ccc(F)cc2)c1/C=C/[C@@H]1C[C@@H](O)CC(=O)O1 [Rsv lactone, rosuvastatin lactone]
[1]; [8]
  Concentration in vitreous sample: 0.011 ng/mL
[1]; [9]
  Concentration in vitreous sample: 0.025 ng/mL

## CCC(C)(C)C(=O)O[C@H]1C[C@@H](C)C=C2C=C[C@H](C)[C@H](CC[C@@H](O)C[C@@H](O)CC(=O)O)[C@H]21 [Sim acid, simvastatin acid]
[1]; patient 347, PDR, TDR, oral simvastatin 40 mg
  Concentration in vitreous sample: 0.039 ng/mL
[1]; patient 370, PDR, oral simvastatin 40 mg
  Concentration in vitreous sample: 0.019 ng/mL
[1]; patient A101, PDR, TDR, oral simvastatin 40 mg
  Concentration in vitreous sample: 0.006 ng/mL
